In ChEMBL document CHEMBL1201862, “PubChem BioAssay data set” (2004):
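Values below derive from 48-hour exposures of cells grown in 96-well plates, with endpoints linearly interpolated between the two concentrations bracketing the appropriate inhibition level. The concentration for 50% growth inhibition is given as GI50.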 Activity calls are given as the source filed them. Cut-off read from the data, not from the text of the source: active = GI50 up to about 1.1 µM and inactive = higher.

How the values were obtained:
Assay in all cases: DTP human tumour cell line panel, 48 h
[1] = test system: CAKI-1
[2] = test system: A498
[3] = test system: SF-539
[4] = test system: OVCAR-5
[5] = test system: HOP-62
[6] = test system: HCC 2998
[7] = test system: LOX IMVI
[8] = test system: CCRF-CEM
[9] = test system: UACC-257
[10] = test system: HOP-92
[11] = test system: SR
[12] = test system: UACC-62
[13] = test system: HCT-15
[14] = test system: A549
[15] = test system: SK-MEL-2
[16] = test system: UO-31
[17] = test system: SK-OV-3
[18] = test system: 786-0
[19] = test system: NCI-H226
[20] = test system: SNB-75

SMILES	GI50 [1]	GI50 [2]	GI50 [3]	GI50 [4]	GI50 [5]	GI50 [6]	GI50 [7]	GI50 [8]	GI50 [9]	GI50 [10]	GI50 [11]	GI50 [12]	GI50 [13] [µM]	GI50 [14]	GI50 [15]	GI50 [16]	GI50 [17]	GI50 [18]	GI50 [19]	GI50 [20]
O[C@@]12Cc3c([nH]c4ccccc34)[C@@H]3Oc4cccc5c4[C@@]31CCN(CC1CC1)[C@@H]2C5	19.2 µM (inactive)	25.2 µM (inactive)	20.9 µM (inactive)	29 µM (inactive)	31.8 µM (inactive)	17.7 µM (inactive)	18.9 µM (inactive)	11.3 µM (inactive)	24.9 µM (inactive)	12.4 µM (inactive)	34 µM (inactive)	17.2 µM (inactive)	18.1	27 µM (inactive)	26.5 µM (inactive)	18.9 µM (inactive)	–	–	–	–
CSc1ncc2c(n1)sc1c(=O)n(-c3ccccc3)cnc12	> 100 µM (inactive)	> 100 µM (inactive)	–	> 100 µM (inactive)	> 100 µM (inactive)	> 100 µM (inactive)	> 100 µM (inactive)	> 100 µM (inactive)	> 100 µM (inactive)	> 100 µM (inactive)	> 100 µM (inactive)	> 100 µM (inactive)	> 100	> 100 µM (inactive)	> 100 µM (inactive)	> 100 µM (inactive)	> 100 µM (inactive)	> 100 µM (inactive)	> 100 µM (inactive)	> 100 µM (inactive)
CCSc1nc(N/N=C/c2cccs2)c2cnn(CO)c2n1	2.66 µM (inactive)	2.18 µM (inactive)	10.5 µM (inactive)	13.4 µM (inactive)	4.25 µM (inactive)	–	–	–	11.6 µM (inactive)	16.9 µM (inactive)	5.9 µM (inactive)	10.4 µM (inactive)	4.88	7 µM (inactive)	10.6 µM (inactive)	2.81 µM (inactive)	14.6 µM (inactive)	0.0614 µM (active)	3.1 µM (inactive)	14.2 µM (inactive)
CC1(C)OC2OC(COC(=O)c3ccc(C#N)cc3)C3OC(C)(C)OC3C2O1 (stereo not drawn)	> 75 µM (inactive)	> 75 µM (inactive)	> 75 µM (inactive)	> 75 µM (inactive)	> 75 µM (inactive)	> 75 µM (inactive)	> 75 µM (inactive)	50.7 µM (inactive)	> 75 µM (inactive)	–	> 75 µM (inactive)	> 75 µM (inactive)	> 75	> 75 µM (inactive)	> 75 µM (inactive)	46.9 µM (inactive)	> 75 µM (inactive)	> 75 µM (inactive)	> 75 µM (inactive)	> 75 µM (inactive)
c1ccc(COc2nc3cc(C45CC6CC(CC(C6)C4)C5)ccc3[nH]2)cc1	39.7 µM (inactive)	23.3 µM (inactive)	–	41 µM (inactive)	24.4 µM (inactive)	9.68 µM (inactive)	12.1 µM (inactive)	10.2 µM (inactive)	2.92 µM (inactive)	7.29 µM (inactive)	> 100 µM (inactive)	7.13 µM (inactive)	3.72	16.5 µM (inactive)	11.2 µM (inactive)	6.22 µM (inactive)	29.8 µM (inactive)	14.9 µM (inactive)	12 µM (inactive)	29.6 µM (inactive)
CSc1cc(-c2cc3ccccc3o2)oc(=O)c1C#N	8.13 µM (inactive)	> 100 µM (inactive)	> 100 µM (inactive)	12.2 µM (inactive)	–	> 100 µM (inactive)	> 100 µM (inactive)	> 100 µM (inactive)	> 100 µM (inactive)	0.301 µM (active)	15.5 µM (inactive)	–	> 100	> 100 µM (inactive)	> 100 µM (inactive)	37.5 µM (inactive)	–	–	0.165 µM (active)	16.3 µM (inactive)
CCN(CC)/[N+]([O-])=N/OC	–	> 100 µM (inactive)	> 100 µM (inactive)	> 100 µM (inactive)	> 100 µM (inactive)	> 100 µM (inactive)	> 100 µM (inactive)	> 100 µM (inactive)	> 100 µM (inactive)	> 100 µM (inactive)	> 100 µM (inactive)	> 100 µM (inactive)	> 100	> 100 µM (inactive)	> 100 µM (inactive)	> 100 µM (inactive)	> 100 µM (inactive)	–	> 100 µM (inactive)	–
CC(C)(C)OC(=O)C1C(=O)NC(=O)CC1CC(OCc1ccccc1)C(COCc1ccccc1)OCc1ccccc1 (stereo not drawn)	–	26.5 µM (inactive)	10.9 µM (inactive)	–	–	3.81 µM (inactive)	10.9 µM (inactive)	11.6 µM (inactive)	15.5 µM (inactive)	11.9 µM (inactive)	3.87 µM (inactive)	–	4.41	5.06 µM (inactive)	–	2.19 µM (inactive)	–	6.79 µM (inactive)	10.9 µM (inactive)	–
Oc1ccc2ccccc2c1/N=N/c1cccc2ccccc12	> 100 µM (inactive)	> 100 µM (inactive)	24.3 µM (inactive)	> 100 µM (inactive)	48.5 µM (inactive)	> 100 µM (inactive)	–	> 100 µM (inactive)	> 100 µM (inactive)	> 100 µM (inactive)	> 100 µM (inactive)	> 100 µM (inactive)	> 100	> 100 µM (inactive)	> 100 µM (inactive)	> 100 µM (inactive)	52.6 µM (inactive)	66.1 µM (inactive)	> 100 µM (inactive)	23.6 µM (inactive)
CC1=CC(C)C(C)N(CCNC(=O)Nc2ccccc2)c2ccccc21 (stereo not drawn)	19.5 µM (inactive)	16.2 µM (inactive)	21.4 µM (inactive)	19.5 µM (inactive)	22.2 µM (inactive)	18.1 µM (inactive)	6.81 µM (inactive)	20.7 µM (inactive)	13.7 µM (inactive)	–	16.3 µM (inactive)	13.6 µM (inactive)	21.9	12 µM (inactive)	23.1 µM (inactive)	27.2 µM (inactive)	19.1 µM (inactive)	30.3 µM (inactive)	22.1 µM (inactive)	27.3 µM (inactive)
COc1cc(O)cc(/C=C/c2ccc(O)cc2)c1	33.7 µM (inactive)	33.1 µM (inactive)	35.6 µM (inactive)	> 100 µM (inactive)	28.8 µM (inactive)	–	–	–	40.8 µM (inactive)	21.6 µM (inactive)	42 µM (inactive)	20.7 µM (inactive)	10.1	27.7 µM (inactive)	52.7 µM (inactive)	39.1 µM (inactive)	> 100 µM (inactive)	29.6 µM (inactive)	24.7 µM (inactive)	90.4 µM (inactive)
COc1cc(O)c2c(c1)C(=O)c1cc(C)cc(O)c1C2=O [PHYSCION]	> 100 µM (inactive)	> 100 µM (inactive)	> 100 µM (inactive)	> 100 µM (inactive)	> 100 µM (inactive)	> 100 µM (inactive)	> 100 µM (inactive)	> 100 µM (inactive)	> 100 µM (inactive)	–	> 100 µM (inactive)	> 100 µM (inactive)	–	> 100 µM (inactive)	> 100 µM (inactive)	> 100 µM (inactive)	> 100 µM (inactive)	–	> 100 µM (inactive)	93.8 µM (inactive)
